Reference: PubChem BioAssay AID1963853 (Molecular Pharmacology Branch, DTP, NCI, 2024)

System: 266295-075-R-J1-PDC spheroid viability
Assay: Anticancer human tumor 266295-075-R-J1-PDC patient-derived head and neck squamous carcinoma cell line growth inhibition [POLQ]
Settings: spheroids with HUVEC and MSC; for IC50: curve of first compound; for viability, T/C: stronger effect = lower value
Outline: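 Three-cell-type spheroids modelling solid tumor plus stroma served as the readout system; POL inhibitors were tested individually and in combination, concentration ranges set by clinical Cmax where known.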

[1] = second compound 0.0316 µM, first compound 0.0316 µM
[2] = second compound 0.0316 µM, first compound 0.1 µM
[3] = second compound 0.0316 µM, first compound 0.316 µM
[4] = second compound 0.0316 µM, first compound 1 µM
[5] = second compound 0.0316 µM, first compound 3.16 µM
[6] = second compound 0.0316 µM, first compound 10 µM
[7] = second compound 0.1 µM, first compound 0.0316 µM
[8] = second compound 0.1 µM, first compound 0.1 µM
[9] = second compound 0.1 µM, first compound 0.316 µM
[10] = second compound 0.1 µM, first compound 1 µM
[11] = second compound 0.1 µM, first compound 3.16 µM
[12] = second compound 0.1 µM, first compound 10 µM
[13] = second compound 0.316 µM, first compound 0.0316 µM
[14] = second compound 0.316 µM, first compound 0.1 µM
[15] = second compound 0.316 µM, first compound 0.316 µM
[16] = second compound 0.316 µM, first compound 1 µM
[17] = second compound 0.316 µM, first compound 3.16 µM
[18] = second compound 0.316 µM, first compound 10 µM
[19] = second compound 1 µM, first compound 0.0316 µM
[20] = second compound 1 µM, first compound 0.1 µM
[21] = second compound 1 µM, first compound 0.316 µM
[22] = second compound 1 µM, first compound 1 µM
[23] = second compound 1 µM, first compound 3.16 µM
[24] = second compound 1 µM, first compound 10 µM
[25] = second compound 3.16 µM, first compound 0.0316 µM
[26] = second compound 3.16 µM, first compound 0.1 µM
[27] = second compound 3.16 µM, first compound 0.316 µM
[28] = second compound 3.16 µM, first compound 1 µM
[29] = second compound 3.16 µM, first compound 3.16 µM
[30] = second compound 3.16 µM, first compound 10 µM
[31] = second compound 10 µM, first compound 0.0316 µM
[32] = second compound 10 µM, first compound 0.1 µM
[33] = second compound 10 µM, first compound 0.316 µM
[34] = second compound 10 µM, first compound 1 µM
[35] = second compound 10 µM, first compound 3.16 µM
[36] = second compound 10 µM, first compound 10 µM
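Further: spheroids exposed to compounds for seven days before readout.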

Work on `Nc1ccn(C2OC(CO)C(O)C2(F)F)c(=O)n1` (centres undefined) + Nc1ccc(C#CCN(C(=O)Cc2ncc(C(F)(F)F)cc2C(F)(F)F)c2ccc(F)cc2)nn1 yielded an IC50 (second compound 0.0316 µM) of over 10 µM, an IC50 (second compound 0.1 µM) of over 10 µM and an IC50 (second compound 0.316 µM) of over 10 µM. For the same compound, the IC50 (second compound 1 µM) was over 10 µM, the IC50 (second compound 3.16 µM) was over 10 µM and the IC50 (second compound 10 µM) was over 10 µM. For the same compound, the viability, T/C [1] was 100%, the viability, T/C [2] was 106% and the viability, T/C [3] was 81.6%. For the same compound, the viability, T/C [4] was 77%, the viability, T/C [5] was 93.7% and the viability, T/C [6] was 85.3%. For the same compound, the viability, T/C [7] was 112%, the viability, T/C [8] was 98.8% and the viability, T/C [9] was 72.6%. For the same compound, the viability, T/C [10] was 96.5%, the viability, T/C [11] was 92.1% and the viability, T/C [12] was 80.4%. The viability, T/C [13] was 105%, the viability, T/C [14] was 88% and the viability, T/C [15] was 78.5%. For the same compound, the viability, T/C [16] was 94.8%, the viability, T/C [17] was 95.7% and the viability, T/C [18] was 82%. The viability, T/C [19] was 105%, the viability, T/C [20] was 82.9% and the viability, T/C [21] was 92%. The viability, T/C [22] was 101%, the viability, T/C [23] was 94.3% and the viability, T/C [24] was 82.5%. For the same compound, the viability, T/C [25] was 124%, the viability, T/C [26] was 94.2% and the viability, T/C [27] was 90.5%. For the same compound, the viability, T/C [28] was 95.1%, the viability, T/C [29] was 83.7% and the viability, T/C [30] was 75.7%. The viability, T/C [31] was 93.2%, the viability, T/C [32] was 101% and the viability, T/C [33] was 82.8%. It also gave a viability, T/C [34] of 89.7%, a viability, T/C [35] of 75.5% and a viability, T/C [36] of 72.2%.
`O=C(c1cc(Cc2n[nH]c(=O)c3ccccc23)ccc1F)N1CCN(C(=O)C2CC2)CC1` + Nc1ccc(C#CCN(C(=O)Cc2ncc(C(F)(F)F)cc2C(F)(F)F)c2ccc(F)cc2)nn1 showed an IC50 (second compound 0.0316 µM) of over 10 µM, an IC50 (second compound 0.1 µM) of over 10 µM and an IC50 (second compound 0.316 µM) of over 10 µM. It also gave an IC50 (second compound 1 µM) of over 10 µM, an IC50 (second compound 3.16 µM) of over 10 µM and an IC50 (second compound 10 µM) of over 10 µM. It also gave a viability, T/C [1] of 105%, a viability, T/C [2] of 103% and a viability, T/C [3] of 115%. The viability, T/C [4] was 94.1%, the viability, T/C [5] was 108% and the viability, T/C [6] was 89%. It also gave a viability, T/C [7] of 96.6%, a viability, T/C [8] of 88.2% and a viability, T/C [9] of 97.6%. The viability, T/C [10] was 92.9%, the viability, T/C [11] was 105% and the viability, T/C [12] was 89.5%. It also gave a viability, T/C [13] of 124%, a viability, T/C [14] of 92.8% and a viability, T/C [15] of 77.1%. The viability, T/C [16] was 100%, the viability, T/C [17] was 80.6% and the viability, T/C [18] was 99.4%. The viability, T/C [19] was 90.1%, the viability, T/C [20] was 106% and the viability, T/C [21] was 91.9%. For the same compound, the viability, T/C [22] was 97.7%, the viability, T/C [23] was 85.7% and the viability, T/C [24] was 87%. For the same compound, the viability, T/C [25] was 92.7%, the viability, T/C [26] was 83.9% and the viability, T/C [27] was 91%. For the same compound, the viability, T/C [28] was 106%, the viability, T/C [29] was 106% and the viability, T/C [30] was 98.4%. The viability, T/C [31] was 110%, the viability, T/C [32] was 99.7% and the viability, T/C [33] was 96.3%. It also gave a viability, T/C [34] of 97.7%, a viability, T/C [35] of 77% and a viability, T/C [36] of 81.8%.
